# Where “and” joins values, the source holds several entries; their conditions need not be identical. Equal values may be shown once. Toxic doses and inconclusive results are not listed.
# Tested on: L1210 leukemia ip in BDF1 mice, survival T/C
# Assay: NCI In Vivo Anticancer Drug Screen. Data for tumor model L1210 Leukemia (intraperitoneal) in B6D2F1 (BDF1) mice
# Conditions: endpoint: mean survival time, higher = longer survival
# How it was run: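 Tumor cells were implanted, animals were treated, and survival was followed. The result divides the treated measurement by the vehicle-control measurement.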
# [1] = dose: 100.0 mg/kg/injection, schedule: Q01DX001 (ip), vehicle: carboxymethylcellulose (CMC)
# [2] = dose: 100.0 mg/kg/injection, schedule: Q04DX002 (ip), vehicle: Klucel (hydroxypropylcellulose) (HPC)
# [3] = dose: 200.0 mg/kg/injection, schedule: Q01DX001 (ip), vehicle: carboxymethylcellulose (CMC)
# [4] = dose: 200.0 mg/kg/injection, schedule: Q04DX002 (ip), vehicle: Klucel (hydroxypropylcellulose) (HPC)
# [5] = dose: 400.0 mg/kg/injection, schedule: Q01DX001 (ip), vehicle: carboxymethylcellulose (CMC)
# [6] = dose: 400.0 mg/kg/injection, schedule: Q04DX002 (ip), vehicle: Klucel (hydroxypropylcellulose) (HPC)
# [7] = dose: 100.0 mg/kg/injection, schedule: Q01DX001 (ip), vehicle: saline
# [8] = dose: 200.0 mg/kg/injection, schedule: Q01DX001 (ip), vehicle: saline
# [9] = dose: 400.0 mg/kg/injection, schedule: Q01DX001 (ip), vehicle: saline
# [10] = dose: 100.0 mg/kg/injection, schedule: Q01DX009 (ip), vehicle: saline with Tween-80
# [11] = dose: 200.0 mg/kg/injection, schedule: Q01DX009 (ip), vehicle: saline with Tween-80
# [12] = dose: 400.0 mg/kg/injection, schedule: Q01DX009 (ip), vehicle: saline with Tween-80
# [13] = dose: 100.0 mg/kg/injection, schedule: Q04DX003 (ip), vehicle: saline with Tween-80
# [14] = dose: 200.0 mg/kg/injection, schedule: Q04DX003 (ip), vehicle: saline with Tween-80
# [15] = dose: 400.0 mg/kg/injection, schedule: Q04DX003 (ip), vehicle: saline with Tween-80
# [16] = dose: 100.0 mg/kg/injection, schedule: Q01DX Z (ip), vehicle: methylcellulose (MC)
# [17] = dose: 50.0 mg/kg/injection, schedule: Q01DX001 (ip), vehicle: carboxymethylcellulose (CMC)
smiles,measurement,setting,value
CSc1ccc(OC(=O)Nc2cccc(Cl)c2)cc1C,T/C,[1],94 % of control
same,T/C,"dose: 100.0 mg/kg/injection, schedule: Q01DX009 (ip), vehicle: carboxymethylcellulose (CMC)",98 % of control
same,T/C,[2],101 % of control
same,T/C,"dose: 100.0 mg/kg/injection, schedule: Q04DX002 (ip), vehicle: carboxymethylcellulose (CMC)",96 % of control and 101 % of control
same,T/C,"dose: 100.0 mg/kg/injection, schedule: Q04DX003 (ip), vehicle: carboxymethylcellulose (CMC)",101 % of control
same,T/C,[3],97 % of control
same,T/C,"dose: 200.0 mg/kg/injection, schedule: Q01DX009 (ip), vehicle: carboxymethylcellulose (CMC)",100 % of control and 106 % of control
same,T/C,[4],95 % of control
same,T/C,"dose: 200.0 mg/kg/injection, schedule: Q04DX002 (ip), vehicle: carboxymethylcellulose (CMC)",95 % of control and 88 % of control
same,T/C,"dose: 200.0 mg/kg/injection, schedule: Q04DX003 (ip), vehicle: carboxymethylcellulose (CMC)",94 % of control
same,T/C,[5],87 % of control
same,T/C,"dose: 400.0 mg/kg/injection, schedule: Q01DX009 (ip), vehicle: carboxymethylcellulose (CMC)",93 % of control and 87 % of control
same,T/C,[6],108 % of control
same,T/C,"dose: 400.0 mg/kg/injection, schedule: Q04DX002 (ip), vehicle: carboxymethylcellulose (CMC)",95 % of control and 103 % of control
same,T/C,"dose: 400.0 mg/kg/injection, schedule: Q04DX003 (ip), vehicle: carboxymethylcellulose (CMC)",92 % of control
c1cc(-c2sc(-c3ccncc3)c(-c3ccncc3)c2-c2ccncc2)ccn1,T/C,"dose: 100.0 mg/kg/injection, schedule: Q01DX001 (ip), vehicle: Klucel (hydroxypropylcellulose) (HPC)",107 % of control
same,T/C,"dose: 200.0 mg/kg/injection, schedule: Q01DX001 (ip), vehicle: Klucel (hydroxypropylcellulose) (HPC)",98 % of control
same,T/C,"dose: 400.0 mg/kg/injection, schedule: Q01DX001 (ip), vehicle: Klucel (hydroxypropylcellulose) (HPC)",98 % of control
O=C(Cc1ccc2ccccc2c1)c1c[nH]c2ccccc12,T/C,"dose: 50.0 mg/kg/injection, schedule: Q01DX001 (ip), vehicle: saline",102 % of control
same,T/C,[7],102 % of control
same,T/C,[8],98 % of control
same,T/C,[9],93 % of control
Oc1ccc(NC(=S)Nc2ccccc2)cc1,T/C,[10],93 % of control
same,T/C,[11],88 % of control
same,T/C,[12],92 % of control
CCCCC(C#N)C1CC=CC(C(=O)O)C1 (stereo not drawn),T/C,[1],101 % of control
same,T/C,[3],92 % of control
same,T/C,[5],97 % of control
COc1ccc(OC)c(NC(=O)c2cccc3ccccc23)c1,T/C,"dose: 50.0 mg/kg/injection, schedule: Q01DX001 (ip), vehicle: saline with Tween-80",102 % of control
same,T/C,"dose: 100.0 mg/kg/injection, schedule: Q01DX001 (ip), vehicle: saline with Tween-80",91 % of control
same,T/C,[10],93 % of control and 96 % of control
same,T/C,"dose: 100.0 mg/kg/injection, schedule: Q04DX002 (ip), vehicle: saline with Tween-80",100 % of control and 91 % of control
same,T/C,[13],95 % of control
same,T/C,"dose: 200.0 mg/kg/injection, schedule: Q01DX001 (ip), vehicle: saline with Tween-80",95 % of control
same,T/C,[11],105 % of control and 90 % of control
same,T/C,"dose: 200.0 mg/kg/injection, schedule: Q04DX002 (ip), vehicle: saline with Tween-80",113 % of control and 91 % of control
same,T/C,[14],95 % of control
same,T/C,[12],87 % of control and 91 % of control
same,T/C,"dose: 400.0 mg/kg/injection, schedule: Q04DX002 (ip), vehicle: saline with Tween-80",94 % of control and 95 % of control
same,T/C,[15],94 % of control
CC1(C)CC2(OC2c2cccc(Cl)c2)C(=O)c2ccccc21 (stereo not drawn),T/C,[13],89 % of control
same,T/C,[14],94 % of control
same,T/C,[15],89 % of control
S=C(NCCN1CCCC1)Nc1ccccc1,T/C,"dose: 25.0 mg/kg/injection, schedule: Q01DX009 (ip), vehicle: Klucel (hydroxypropylcellulose) (HPC)",119 % of control
same,T/C,"dose: 50.0 mg/kg/injection, schedule: Q01DX009 (ip), vehicle: Klucel (hydroxypropylcellulose) (HPC)",104 % of control
same,T/C,"dose: 100.0 mg/kg/injection, schedule: Q01DX009 (ip), vehicle: Klucel (hydroxypropylcellulose) (HPC)",97 % of control and 114 % of control
COC(=O)c1cc2ccccc2c2ccccc12,T/C,[10],94 % of control
same,T/C,[11],91 % of control
same,T/C,[12],87 % of control
O=c1cc(C(F)(F)F)nc(C(F)(F)F)[nH]1,T/C,"dose: 29.0 mg/kg/injection, schedule: Q01DX Z (ip), vehicle: methylcellulose (MC)",90 % of control
same,T/C,"dose: 45.0 mg/kg/injection, schedule: Q01DX Z (ip), vehicle: methylcellulose (MC)",89 % of control
same,T/C,"dose: 67.0 mg/kg/injection, schedule: Q01DX Z (ip), vehicle: methylcellulose (MC)",89 % of control
same,T/C,[16],88 % of control
CC(=O)/C=C\c1ccc(Cl)cc1,T/C,[7],106 % of control
same,T/C,[8],98 % of control
same,T/C,[9],106 % of control
COc1ccc(C(=O)NN2C(N)=NC(N)=NC2(C)C)cc1,T/C,"dose: 100.0 mg/kg/injection, schedule: Q04DX003 (ip), vehicle: saline",94 % of control
same,T/C,"dose: 200.0 mg/kg/injection, schedule: Q04DX003 (ip), vehicle: saline",97 % of control
O=C(OC/C=C/CC(Cl)(Cl)Cl)C(Cl)(Cl)Cl,T/C,[7],104 % of control
same,T/C,"dose: 100.0 mg/kg/injection, schedule: Q01DX009 (ip), vehicle: acetone",93 % of control
same,T/C,"dose: 100.0 mg/kg/injection, schedule: Q04DX003 (ip), vehicle: acetone",109 % of control
same,T/C,[8],112 % of control
same,T/C,"dose: 200.0 mg/kg/injection, schedule: Q01DX009 (ip), vehicle: acetone",90 % of control
same,T/C,"dose: 200.0 mg/kg/injection, schedule: Q04DX003 (ip), vehicle: acetone",103 % of control
same,T/C,[9],102 % of control
same,T/C,"dose: 400.0 mg/kg/injection, schedule: Q04DX003 (ip), vehicle: acetone",93 % of control
Nc1nc(N)c(N=O)c(Nc2ccc(O)cc2)n1,T/C,"dose: 100.0 mg/kg/injection, schedule: Q04DX003 (ip), vehicle: Klucel (hydroxypropylcellulose) (HPC)",103 % of control
same,T/C,"dose: 200.0 mg/kg/injection, schedule: Q01DX Z (ip), vehicle: methylcellulose (MC)",91 % of control
same,T/C,"dose: 200.0 mg/kg/injection, schedule: Q04DX003 (ip), vehicle: Klucel (hydroxypropylcellulose) (HPC)",97 % of control
same,T/C,"dose: 400.0 mg/kg/injection, schedule: Q04DX003 (ip), vehicle: Klucel (hydroxypropylcellulose) (HPC)",100 % of control
CC(C)Cn1cnc2c(Sc3c([N+](=O)[O-])ncn3C)nc(N)nc21,T/C,"dose: 6.0 mg/kg/injection, schedule: Q01DX015 (ip), vehicle: carboxymethylcellulose (CMC)",104 % of control
same,T/C,"dose: 12.0 mg/kg/injection, schedule: Q01DX015 (ip), vehicle: carboxymethylcellulose (CMC)",111 % of control
same,T/C,"dose: 25.0 mg/kg/injection, schedule: Q01DX015 (ip), vehicle: carboxymethylcellulose (CMC)",117 % of control
same,T/C,[17],114 % of control
same,T/C,[1],117 % of control
same,T/C,[3],119 % of control
same,T/C,[5],162 % of control
same,T/C,"dose: 600.0 mg/kg/injection, schedule: Q01DX001 (ip), vehicle: carboxymethylcellulose (CMC)",170 % of control
O=C(Oc1ccc(S(=O)(=O)F)cc1Cl)c1ccc(Cl)cc1,T/C,[2],92 % of control
same,T/C,[4],89 % of control
same,T/C,[6],89 % of control
CCOC(=O)c1ccc(NC(=O)N(C)N=O)cc1,T/C,"dose: 75.0 mg/kg/injection, schedule: Q01DX001 (ip), vehicle: carboxymethylcellulose (CMC)",121 % of control
N#CCCCN1C(=O)c2ccccc2S1(=O)=O,T/C,"dose: 44.0 mg/kg/injection, schedule: Q01DX Z (ip), vehicle: methylcellulose (MC)",98 % of control
same,T/C,"dose: 66.0 mg/kg/injection, schedule: Q01DX Z (ip), vehicle: methylcellulose (MC)",120 % of control
same,T/C,[16],98 % of control
ClCN(CCl)CCl,T/C,[17],102 % of control
same,T/C,[1],94 % of control
same,T/C,[3],105 % of control
CC(=O)C1=C(C)NC(C)=C(C(C)=O)C1C,T/C,"dose: 55.0 mg/kg/injection, schedule: Q01DX Z (ip), vehicle: saline",97 % of control
same,T/C,"dose: 83.0 mg/kg/injection, schedule: Q01DX Z (ip), vehicle: saline",95 % of control
same,T/C,"dose: 125.0 mg/kg/injection, schedule: Q01DX Z (ip), vehicle: saline",100 % of control
COc1ccc(S(=O)(=O)N=[N+]=[N-])cc1,T/C,[7],103 % of control
same,T/C,[8],95 % of control
